In patent publication US20080200376A1, “Compositions and Methods For the Treatment Of Obesity and Sexual Dysfunction” (priority 2004, published 2008):

How the values were obtained:
[1] = test system: distress vocalisations in guinea-pig pups; assay: Separation-induced vocalisation assay; assay type: in vivo; settings: p.o.
Description: Male and female guinea-pigs pups are housed in family groups with their mothers and littermates throughout the study. Experiments are commenced […] when the pups are 2 weeks old. Before entering an experiment, the pups are screened to ensure that a vigorous vocalisation response is reproducibly elicited following maternal separation. The pups are placed individually in an observation cage (55 cm×39 cm×19 cm) in a room physically isolated from the home cage for 15 minutes and the duration of vocalisation during this baseline period is recorded. Only animals which vocalise for longer than 5 minutes are employed for drug challenge studies (approximately 50% of available pups may fail to reach this criterion). On test days each pup receives an oral dose or an s.c. or i.p. injection of test compound or vehicle and is then immediately returned to the home cage with its mother and siblings for 30 to 60 minutes (or for up to 4 hours following an oral dose, dependent upon the oral pharmacokinetics of the test compound) before social isolation for 15 minutes as described above. The duration of vocalisation on drug treatment days is expressed as a percentage of the pre-treatment baseline value for each animal. The same subjects are retested once weekly for up to 6 weeks. Between 6 and 8 animals receive each test compound at each dose tested.

[2] = test system: cisplatin-induced emesis in ferrets; assay: Ferret emesis assay; assay type: in vivo; settings: p.o.
Description: Individually housed male ferrets (1.0-2.5 kg) are dosed orally by gavage with test compound. Ten minutes later they are fed with approximately 100 g of tinned cat food. At 60 minutes following oral dosing, cisplatin (10 mg/kg) is given i.v. via a jugular vein catheter inserted under a brief period of halothane anaesthesia. The catheter is then removed, the jugular vein ligated and the skin incision closed. The ferrets recover rapidly from the anaesthetic and are mobile within 10-20 minutes. The animals are observed continuously during recovery from the anaesthetic and for 4 hours following the cisplatin injection, after which time the animals are killed humanely. The numbers of retches and vomits occurring during the 4 hours after cisplatin administration are recorded by trained observers.

[3] = test system: foot tapping in gerbils induced by central injection of an NK-1 agonist; assay: Gerbil foot-tapping assay; assay type: in vivo; settings: i.v.
Text: CNS-penetrant NK-1 receptor antagonists for use in the present invention can be identified by their ability to inhibit foot tapping in gerbils induced by anxiogenic agents (such as pentagastrin) or central infusion of NK-1 receptor agonists such as GR73632, or caused by aversive stimulation such as foot shock or single housing, based on the method of Rupniak & Williams, Eur. J. Pharmacol., 1994, 265, 179.
Male or female Mongolian gerbils (35-90 g) are anaesthetised by inhalation of an isoflurane/oxygen mixture to permit exposure of the jugular vein in order to permit administration of test compounds or vehicle in an injection volume of 5 ml/kg i.v. Alternatively, test compounds may be administered orally or by subcutaneous or intraperitoneal routes. A skin incision is then made in the midline of the scalp to expose the skull. […] The duration and/or intensity of hind foot tapping is then recorded continuously for approximately 5 minutes. Alternatively, the ability of test compounds to inhibit foot tapping evoked by aversive stimulation, such as foot shock or single housing, may be studied using a similar method of quantification.

[4] = test system: ferrets; assay: MC4R associated emesis in ferrets, Compound A and Compound B (Table 1); assay type: in vivo, ferret; settings: Compound B 10 mg/kg PO; for % Emesis: ferrets; for # of Ferrets: ferrets with emesis/dosed
Description: (§1) Food intake (FI) was monitored at 1, 2, 4, and 24, hours after dosing. Body weight (BWT) was measured at the time of dosing and at 24 hours. Any incidence of emesis or abnormal behavior by subjects was recorded. Two studies were combined to generate the data.

[5] = Food intake in ad lib fed ferrets, Compound A and Compound B (FIG. 1); assay type: in vivo, ferret; settings: oral, Compound B 10 mg/kg, Compound A 60 mg/kg or the combination, 1, 2, 4 and 24 hours after dosing
Description: FIG. 1. […] All food intake data were analyzed by two-tailed T-TEST.
as §1

| SMILES | guinea-pig vocalisation (4 hr. pre-treatment) ID50 [1] | ferret emesis ID90 [2] | gerbil foot-tapping (5 mins.) ID50 ([3]; 5 mins.) | gerbil foot-tapping (24 hrs.) ID50 ([3]; 24 hrs.) | % Emesis ([4]; 1 hour) | % Emesis ([4]; 2 hours) | % Emesis ([4]; 4 hours) | % Emesis ([4]; Total) | # of Ferrets ([4]; 1 hour) | # of Ferrets ([4]; 2 hours) | # of Ferrets ([4]; 4 hours) | # of Ferrets ([4]; Total) | Food intake [5] |
| --- | --- | --- | --- | --- | --- | --- | --- | --- | --- | --- | --- | --- | --- |
| C[C@@H](O[C@H]1OCCN(Cc2nc(=O)[nH][nH]2)[C@H]1c1ccc(F)cc1)c1cc(C(F)(F)F)cc(C(F)(F)F)c1 [2-(R)-(1-(R)-(3,5-bis(trifluoromethyl)phenyl)ethoxy)-3-(S)-(4-fluorophenyl)-4-(3-(5-oxo-1H,4H-1,2,4-triazolo)methyl)morpholine] | 0.73 mg/kg | < 3 mg/kg | 0.36 mg/kg | 0.33 mg/kg | – | – | – | – | – | – | – | – | – |
| C[C@@H](O[C@H]1OCCN(Cc2nn[nH]c2CN(C)C)[C@H]1c1ccc(F)cc1)c1cc(C(F)(F)F)cc(C(F)(F)F)c1 [Compound B, 2-(R)-(1-(R)-(3,5-bis(trifluoromethyl)phenyl)ethoxy)-4-(5-(dimethylamino)methyl-1,2,3-triazol-4-yl)methyl-3-(S)-(4-fluorophenyl)morpholine] | – | – | – | – | 0% | 0% | 0% | 0% | 0/9 | 0/9 | 0/9 | 0/9 | significantly reduced in the NK1 dose group at 24 hours only |
